Where two headings read alike, the source gives them in different places.
Tests used:
Assay in all cases: TGFα-shedding assay-based GPCR screening with chimeric Gα subunit proteins
Format in all cases: cell-based
348 GPCRs [1] = molecular target: T1, 348 GPCRs (Homo sapiens, UniProt P49190); settings: 10µM, Favipiravir 100μM
T1 construct: expressed in transfected cells; host or cells: HEK293A

348 GPCRs [2] = molecular target: T2, 348 GPCRs (Homo sapiens, UniProt Q16570); settings: 10µM, Favipiravir 100μM
T2 construct: expressed in transfected cells; host or cells: HEK293A
T2 sequence (Q16570 1-336): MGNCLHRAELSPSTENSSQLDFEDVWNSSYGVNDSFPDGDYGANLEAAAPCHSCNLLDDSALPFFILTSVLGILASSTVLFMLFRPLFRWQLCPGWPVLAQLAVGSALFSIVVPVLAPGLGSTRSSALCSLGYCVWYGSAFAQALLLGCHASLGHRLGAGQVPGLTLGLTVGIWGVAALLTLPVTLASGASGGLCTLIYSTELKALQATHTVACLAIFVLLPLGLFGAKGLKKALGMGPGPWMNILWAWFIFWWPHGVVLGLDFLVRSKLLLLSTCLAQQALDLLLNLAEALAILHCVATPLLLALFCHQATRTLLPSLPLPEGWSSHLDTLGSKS

348 GPCRs [3] = molecular target: T3, 348 GPCRs (Homo sapiens, UniProt Q15391)
T3 construct: expressed in transfected cells; host or cells: HEK293A
T3 sequence (Q15391 1-338): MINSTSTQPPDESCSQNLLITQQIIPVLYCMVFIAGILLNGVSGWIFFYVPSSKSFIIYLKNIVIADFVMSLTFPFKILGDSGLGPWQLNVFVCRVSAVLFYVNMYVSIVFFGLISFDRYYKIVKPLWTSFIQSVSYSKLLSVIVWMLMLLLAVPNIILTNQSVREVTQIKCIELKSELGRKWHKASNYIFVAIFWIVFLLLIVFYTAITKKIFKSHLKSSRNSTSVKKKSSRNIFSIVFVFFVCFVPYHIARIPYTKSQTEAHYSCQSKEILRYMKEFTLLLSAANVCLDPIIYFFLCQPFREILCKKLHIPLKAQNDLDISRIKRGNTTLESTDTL

348 GPCRs [4] = molecular target: T4, 348 GPCRs (Homo sapiens, UniProt O15303); settings: 10µM, Favipiravir 100μM
T4 construct: expressed in transfected cells; host or cells: HEK293A

348 GPCRs [5] = molecular target: T5, 348 GPCRs (Homo sapiens, UniProt Q6QNK2); settings: 10µM, Favipiravir 100μM
T5 construct: expressed in transfected cells; host or cells: HEK293A
T5 sequence (Q6QNK2 26-874): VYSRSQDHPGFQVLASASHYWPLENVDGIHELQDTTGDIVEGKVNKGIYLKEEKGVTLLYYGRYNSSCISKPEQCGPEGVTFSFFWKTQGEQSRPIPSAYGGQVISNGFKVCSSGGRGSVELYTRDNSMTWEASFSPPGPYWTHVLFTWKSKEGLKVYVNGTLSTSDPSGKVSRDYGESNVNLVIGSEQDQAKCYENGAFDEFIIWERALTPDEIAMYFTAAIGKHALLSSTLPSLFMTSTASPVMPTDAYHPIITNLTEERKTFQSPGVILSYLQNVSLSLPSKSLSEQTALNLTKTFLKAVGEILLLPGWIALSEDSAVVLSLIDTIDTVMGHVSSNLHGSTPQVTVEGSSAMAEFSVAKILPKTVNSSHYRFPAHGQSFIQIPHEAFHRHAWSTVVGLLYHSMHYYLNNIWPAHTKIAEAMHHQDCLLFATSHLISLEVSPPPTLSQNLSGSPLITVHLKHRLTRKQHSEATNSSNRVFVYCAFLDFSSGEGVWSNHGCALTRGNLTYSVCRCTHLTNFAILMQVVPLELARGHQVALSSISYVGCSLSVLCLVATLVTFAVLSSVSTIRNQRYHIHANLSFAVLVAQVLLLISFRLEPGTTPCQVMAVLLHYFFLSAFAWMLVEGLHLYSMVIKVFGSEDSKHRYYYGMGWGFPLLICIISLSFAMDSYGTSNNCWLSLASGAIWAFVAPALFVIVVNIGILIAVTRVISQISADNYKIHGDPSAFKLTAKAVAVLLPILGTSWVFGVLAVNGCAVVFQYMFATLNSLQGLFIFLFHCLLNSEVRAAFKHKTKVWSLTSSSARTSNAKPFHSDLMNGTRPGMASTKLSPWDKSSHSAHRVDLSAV

348 GPCRs [6] = molecular target: T6, 348 GPCRs (Homo sapiens, UniProt Q5NUL3)
T6 construct: expressed in transfected cells; host or cells: HEK293A
T6 sequence (Q5NUL3 1-361): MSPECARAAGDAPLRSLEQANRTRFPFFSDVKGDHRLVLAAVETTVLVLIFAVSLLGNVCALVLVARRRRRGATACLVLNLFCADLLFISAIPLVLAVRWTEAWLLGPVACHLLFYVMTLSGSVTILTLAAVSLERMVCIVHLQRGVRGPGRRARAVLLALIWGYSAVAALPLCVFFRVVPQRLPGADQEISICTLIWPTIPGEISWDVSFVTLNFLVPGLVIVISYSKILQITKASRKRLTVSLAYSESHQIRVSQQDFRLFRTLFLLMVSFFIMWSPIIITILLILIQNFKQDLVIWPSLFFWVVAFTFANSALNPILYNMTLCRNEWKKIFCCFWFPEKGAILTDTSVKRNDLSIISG

348 GPCRs [7] = molecular target: T7, 348 GPCRs (Homo sapiens, UniProt P47901)
T7 construct: expressed in transfected cells; host or cells: HEK293A
T7 sequence (P47901 1-424): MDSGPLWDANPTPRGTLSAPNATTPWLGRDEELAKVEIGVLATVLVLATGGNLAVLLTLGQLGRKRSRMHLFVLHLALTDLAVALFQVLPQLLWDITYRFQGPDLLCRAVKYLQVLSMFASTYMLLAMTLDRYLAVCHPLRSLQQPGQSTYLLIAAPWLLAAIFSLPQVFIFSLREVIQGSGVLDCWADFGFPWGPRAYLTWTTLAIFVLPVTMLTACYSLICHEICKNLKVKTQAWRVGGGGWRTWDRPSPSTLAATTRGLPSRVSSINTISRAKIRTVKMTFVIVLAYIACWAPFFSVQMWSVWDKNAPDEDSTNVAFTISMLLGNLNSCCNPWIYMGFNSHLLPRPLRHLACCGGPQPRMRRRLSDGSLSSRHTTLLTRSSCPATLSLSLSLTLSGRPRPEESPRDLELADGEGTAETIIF

[8] = PTH2R (parathyroid hormone 2 receptor), read-out: % GPCR activation compared to TPA
[9] = DARC (Duffy blood group, chemokine receptor), read-out: % GPCR activation compared to TPA
[10] = GPCR P2Y14 (purinergic receptor P2Y, G-protein coupled, 14), read-out: % GPCR activation compared to TPA
[11] = GRM6 (glutamate receptor, metabotropic 6), read-out: % GPCR activation compared to TPA
[12] = GPR133 (G protein-coupled receptor 133), read-out: % GPCR activation compared to TPA
[13] = FFA4 (free fatty acid receptor 4), Favipiravir 100μM, read-out: % GPCR activation compared to TPA
[14] = GPCR GPR120 (Free Fatty Acid Receptor 4 (FFAR4)), read-out: % GPCR activation compared to TPA
[15] = GPCR V1B (arginine vasopressin receptor 1B), read-out: % GPCR activation compared to TPA
[16] = read-out: % GPCR activation compared to TPA, PTH2R (parathyroid hormone 2 receptor)
[17] = read-out: % GPCR activation compared to TPA, DARC (Duffy blood group, chemokine receptor)
[18] = read-out: % GPCR activation compared to TPA, GPCR P2Y14 (purinergic receptor P2Y, G-protein coupled, 14)
[19] = read-out: % GPCR activation compared to TPA, GRM6 (glutamate receptor, metabotropic 6)
[20] = read-out: % GPCR activation compared to TPA, GPR133 (G protein-coupled receptor 133)
[21] = read-out: % GPCR activation compared to TPA, FFA4 (free fatty acid receptor 4), Favipiravir 100μM
[22] = read-out: % GPCR activation compared to TPA, GPCR GPR120 (Free Fatty Acid Receptor 4 (FFAR4))
[23] = read-out: % GPCR activation compared to TPA, GPCR V1B (arginine vasopressin receptor 1B)

T4 sequence (O15303 25-877): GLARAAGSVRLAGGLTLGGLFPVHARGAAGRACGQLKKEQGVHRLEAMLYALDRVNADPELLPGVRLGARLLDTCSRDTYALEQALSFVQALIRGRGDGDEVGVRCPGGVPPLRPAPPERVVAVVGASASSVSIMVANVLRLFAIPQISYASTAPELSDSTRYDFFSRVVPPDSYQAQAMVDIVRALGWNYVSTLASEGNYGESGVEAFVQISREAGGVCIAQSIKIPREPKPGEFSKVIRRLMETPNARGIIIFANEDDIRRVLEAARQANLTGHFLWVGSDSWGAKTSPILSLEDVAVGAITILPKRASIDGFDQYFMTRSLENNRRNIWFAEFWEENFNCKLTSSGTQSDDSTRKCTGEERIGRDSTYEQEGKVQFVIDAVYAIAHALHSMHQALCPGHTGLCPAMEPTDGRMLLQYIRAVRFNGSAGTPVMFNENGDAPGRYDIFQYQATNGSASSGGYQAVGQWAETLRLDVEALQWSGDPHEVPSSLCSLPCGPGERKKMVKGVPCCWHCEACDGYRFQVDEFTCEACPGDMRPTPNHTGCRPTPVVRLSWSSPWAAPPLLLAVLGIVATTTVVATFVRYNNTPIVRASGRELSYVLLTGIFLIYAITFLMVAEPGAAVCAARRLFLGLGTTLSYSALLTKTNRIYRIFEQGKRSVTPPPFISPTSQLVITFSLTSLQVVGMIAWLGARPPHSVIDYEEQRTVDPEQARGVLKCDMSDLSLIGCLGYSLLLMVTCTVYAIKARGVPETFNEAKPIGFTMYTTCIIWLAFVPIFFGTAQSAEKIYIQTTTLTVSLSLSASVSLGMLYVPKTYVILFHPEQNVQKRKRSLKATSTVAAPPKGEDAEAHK
T1 sequence (P49190 25-550): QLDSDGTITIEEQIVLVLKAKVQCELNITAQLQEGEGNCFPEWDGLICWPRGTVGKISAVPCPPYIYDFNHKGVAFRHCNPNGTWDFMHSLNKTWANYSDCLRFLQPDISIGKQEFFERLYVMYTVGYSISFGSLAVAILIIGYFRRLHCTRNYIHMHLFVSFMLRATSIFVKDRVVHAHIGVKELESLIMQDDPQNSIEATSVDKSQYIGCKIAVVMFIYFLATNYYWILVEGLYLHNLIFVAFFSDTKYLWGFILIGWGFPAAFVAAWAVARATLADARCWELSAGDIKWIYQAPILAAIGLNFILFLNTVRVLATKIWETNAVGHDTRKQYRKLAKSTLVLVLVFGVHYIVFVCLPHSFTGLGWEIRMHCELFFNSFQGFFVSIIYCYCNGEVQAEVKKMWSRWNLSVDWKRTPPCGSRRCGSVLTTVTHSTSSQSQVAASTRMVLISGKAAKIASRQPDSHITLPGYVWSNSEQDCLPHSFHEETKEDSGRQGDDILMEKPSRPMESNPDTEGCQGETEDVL

activation at 100 µM (348 GPCRs [1]; [8]) [%] | activation at 100 µM (348 GPCRs [2]; [9]) [%] | activation at 10 µM (348 GPCRs [3]; [10]) [%] | activation at 10 µM (348 GPCRs [4]; [11]) [%] | activation at 100 µM (348 GPCRs [5]; [12]) [%] | activation at 10 µM (348 GPCRs [6]; [13]) [%] | activation at 10 µM (348 GPCRs [6]; [14]) [%] | activation at 10 µM (348 GPCRs [7]; [15]) [%] | activation at 100 µM (348 GPCRs [3]; GPCR P2Y14 (purinergic receptor P2Y, G-protein coupled, 14), 100μM, read-out: % GPCR activation compared to TPA) [%] | activation at 100 µM (348 GPCRs [6]; GPCR GPR120 (Free Fatty Acid Receptor 4 (FFAR4)), 100μM, read-out: % GPCR activation compared to TPA) [%] | activation at 100 µM (348 GPCRs [7]; GPCR V1B (arginine vasopressin receptor 1B), 100μM, read-out: % GPCR activation compared to TPA) [%] | Structure (SMILES) | activation at 100 µM (348 GPCRs [1]; [16]) [%] | activation at 100 µM (348 GPCRs [2]; [17]) [%] | activation at 10 µM (348 GPCRs [3]; [18]) [%] | activation at 10 µM (348 GPCRs [4]; [19]) [%] | activation at 100 µM (348 GPCRs [5]; [20]) [%] | activation at 10 µM (348 GPCRs [6]; [21]) [%] | activation at 10 µM (348 GPCRs [6]; [22]) [%] | activation at 10 µM (348 GPCRs [7]; [23]) [%]
-1.76 | 1.78 | 4.97 | -1.17 | 3.32 | -7.33 | 0.817 | 0.627 |  |  |  | N#C[C@@]1(c2ccc3c(N)ncnn23)O[C@H](CO)[C@@H](O)[C@H]1O [GS441524] |  |  |  |  |  |  |  | 
-0.481 | 0.223 | 0.0147 | -2.76 | -83.1 | -1.75 | -1.23 | -0.66 |  |  |  | CC(C)C(=O)OC[C@H]1O[C@@H](n2ccc(NO)nc2=O)[C@H](O)[C@@H]1O [molnupiravir] |  |  |  |  |  |  |  | 

The remaining lines, values behind:

Structure (SMILES) | activation at 100 µM (348 GPCRs [1]; [8]) [%] | activation at 100 µM (348 GPCRs [2]; [9]) [%] | activation at 10 µM (348 GPCRs [3]; [10]) [%] | activation at 10 µM (348 GPCRs [4]; [11]) [%] | activation at 100 µM (348 GPCRs [5]; [12]) [%] | activation at 10 µM (348 GPCRs [6]; [13]) [%] | activation at 10 µM (348 GPCRs [6]; [14]) [%] | activation at 10 µM (348 GPCRs [7]; [15]) [%] | activation at 100 µM (348 GPCRs [3]; GPCR P2Y14 (purinergic receptor P2Y, G-protein coupled, 14), 100μM, read-out: % GPCR activation compared to TPA) [%] | activation at 100 µM (348 GPCRs [6]; GPCR GPR120 (Free Fatty Acid Receptor 4 (FFAR4)), 100μM, read-out: % GPCR activation compared to TPA) [%] | activation at 100 µM (348 GPCRs [7]; GPCR V1B (arginine vasopressin receptor 1B), 100μM, read-out: % GPCR activation compared to TPA) [%] | activation at 100 µM (348 GPCRs [1]; [16]) [%] | activation at 100 µM (348 GPCRs [2]; [17]) [%] | activation at 10 µM (348 GPCRs [3]; [18]) [%] | activation at 10 µM (348 GPCRs [4]; [19]) [%] | activation at 100 µM (348 GPCRs [5]; [20]) [%] | activation at 10 µM (348 GPCRs [6]; [21]) [%] | activation at 10 µM (348 GPCRs [6]; [22]) [%] | activation at 10 µM (348 GPCRs [7]; [23]) [%]
NC(=O)c1nc(F)cnc1O [favipiravir, 6-fluoro-3-hydroxy-2-pyrazinecarboxamide] | 0.392 | 1.68 |  | -0.482 | 2.84 | -8.27 |  |  | 5.36 | -1.72 | 1.12 |  |  |  |  |  |  |  | 
CCC(CC)COC(=O)[C@H](C)N[P@](=O)(OC[C@H]1O[C@@](C#N)(c2ccc3c(N)ncnn23)[C@H](O)[C@@H]1O)Oc1ccccc1 [remdesivir] |  |  |  |  |  |  |  |  |  |  |  | 0.518 | 5.17 | 8.52 | -1.74 | 3.45 | -7.9 | 1.09 | 1.47
CC(C)OC(=O)[C@H](C)N[P@](=O)(OC[C@H]1O[C@@H](n2ccc(=O)[nH]c2=O)[C@](C)(F)[C@@H]1O)Oc1ccccc1 [sofosbuvir] |  |  |  |  |  |  |  |  |  |  |  | -1.19 | -1.56 | 0.966 | 2.66 | -82.3 | -2.55 | -1.1 | -0.149
